Source: the supplement of paper PMC10307832

Legend:
Test in all cases: relative viability (nuclei count vs DMSO), 5 days (fraction); higher = more cells survive
[1] = compound: CC[C@H](CO)Nc1nc(NCc2ccccc2)c2ncn(C(C)C)c2n1 [Seliciclib] + CC(=O)Nc1cccc(-n2c(=O)n(C3CC3)c(=O)c3c(Nc4ccc(I)cc4F)n(C)c(=O)c(C)c32)c1 [Trametinib] (partner 0.02 µM)
Summary of the method: (§1)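 Nuclei were stained with Hoechst during a one-step fixation (final 0.05% Triton X-100, 1% formaldehyde, 1 ug/ml Hoechst) carried out 5 days after dosing, then counted on 4× images. The cells, lung cancer lines in 1536-well plates, had been dosed by pin tool the day after seeding with one drug alone or a fixed anchor-drug dose plus five library-drug doses (not always all listed) in √10 steps. Relative viability is the nuclei count in treated wells divided by that in vehicle wells, and each value is the median of duplicate plates.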

[2] = compound: CC[C@H](CO)Nc1nc(NCc2ccccc2)c2ncn(C(C)C)c2n1 [Seliciclib] + CS(=O)(=O)CCNCc1ccc(-c2ccc3ncnc(Nc4ccc(OCc5cccc(F)c5)c(Cl)c4)c3c2)o1 [Lapatinib] (partner 2 µM)
Summary of the method: as §1

[3] = compound: CC[C@H](CO)Nc1nc(NCc2ccccc2)c2ncn(C(C)C)c2n1 [Seliciclib] + O=C(c1cc(Cc2n[nH]c(=O)c3ccccc23)ccc1F)N1CCN(C(=O)C2CC2)CC1 [Olaparib] (partner 8 µM)
Summary of the method: as §1

[4] = compound: CC[C@H](CO)Nc1nc(NCc2ccccc2)c2ncn(C(C)C)c2n1 [Seliciclib] + N=C(N)NC(=N)NCCc1ccccc1 [Phenformin] (partner 250 µM)
Summary of the method: as §1

Cell Line: COR-L 105
- relative viability ([1]; first compound 0.08 µM): 0.469
- relative viability ([1]; first compound 0.253 µM): 0.36
- relative viability ([1]; first compound 0.8 µM): 0.427
- relative viability ([1]; first compound 2.53 µM): 0.451
- relative viability ([1]; first compound 8 µM): 0.401
- relative viability ([2]; first compound 0.08 µM): 0.367
- relative viability ([2]; first compound 0.253 µM): 0.347
- relative viability ([2]; first compound 0.8 µM): 0.416
- relative viability ([2]; first compound 2.53 µM): 0.311
- relative viability ([2]; first compound 8 µM): 0.279
- relative viability ([3]; first compound 0.08 µM): 0.656
- relative viability ([3]; first compound 0.253 µM): 0.602
- relative viability ([3]; first compound 0.8 µM): 0.7
- relative viability ([3]; first compound 2.53 µM): 0.713
- relative viability ([3]; first compound 8 µM): 0.733
- relative viability ([4]; first compound 0.08 µM): 0.466
- relative viability ([4]; first compound 0.253 µM): 0.565
- relative viability ([4]; first compound 0.8 µM): 0.549
- relative viability ([4]; first compound 2.53 µM): 0.389
- relative viability ([4]; first compound 8 µM): 0.481

Cell Line: LK-2
- relative viability ([1]; first compound 0.08 µM): 0.747
- relative viability ([1]; first compound 0.253 µM): 0.575
- relative viability ([1]; first compound 0.8 µM): 0.69
- relative viability ([1]; first compound 2.53 µM): 0.693
- relative viability ([1]; first compound 8 µM): 0.577
- relative viability ([2]; first compound 0.08 µM): 0.946
- relative viability ([2]; first compound 0.253 µM): 0.91
- relative viability ([2]; first compound 0.8 µM): 0.871
- relative viability ([2]; first compound 2.53 µM): 0.747
- relative viability ([2]; first compound 8 µM): 0.452
- relative viability ([3]; first compound 0.08 µM): 0.817
- relative viability ([3]; first compound 0.253 µM): 0.723
- relative viability ([3]; first compound 0.8 µM): 0.739
- relative viability ([3]; first compound 2.53 µM): 0.398
- relative viability ([3]; first compound 8 µM): 0.718
- relative viability ([4]; first compound 0.08 µM): 0.475
- relative viability ([4]; first compound 0.253 µM): 0.415
- relative viability ([4]; first compound 0.8 µM): 0.358
- relative viability ([4]; first compound 2.53 µM): 0.243
- relative viability ([4]; first compound 8 µM): 0.274

Cell Line: NCI-H727
- relative viability ([1]; first compound 0.08 µM): 0.388
- relative viability ([1]; first compound 0.253 µM): 0.443
- relative viability ([1]; first compound 0.8 µM): 0.399
- relative viability ([1]; first compound 2.53 µM): 0.377
- relative viability ([1]; first compound 8 µM): 0.335
- relative viability ([2]; first compound 0.08 µM): 0.936
- relative viability ([2]; first compound 0.253 µM): 0.75
- relative viability ([2]; first compound 0.8 µM): 0.556
- relative viability ([2]; first compound 2.53 µM): 0.518
- relative viability ([2]; first compound 8 µM): 0.634
- relative viability ([3]; first compound 0.08 µM): 0.873
- relative viability ([3]; first compound 0.253 µM): 0.805
- relative viability ([3]; first compound 0.8 µM): 0.596
- relative viability ([3]; first compound 2.53 µM): 0.74
- relative viability ([3]; first compound 8 µM): 0.731
- relative viability ([4]; first compound 0.08 µM): 0.562
- relative viability ([4]; first compound 0.253 µM): 0.488
- relative viability ([4]; first compound 0.8 µM): 0.561
- relative viability ([4]; first compound 2.53 µM): 0.373
- relative viability ([4]; first compound 8 µM): 0.472

Cell Line: RERF-LC-KJ
- relative viability ([1]; first compound 0.08 µM): 0.872
- relative viability ([1]; first compound 0.253 µM): 0.748
- relative viability ([1]; first compound 0.8 µM): 0.807
- relative viability ([1]; first compound 2.53 µM): 0.824
- relative viability ([1]; first compound 8 µM): 0.744
- relative viability ([2]; first compound 0.08 µM): 0.852
- relative viability ([2]; first compound 0.253 µM): 0.783
- relative viability ([2]; first compound 0.8 µM): 0.913
- relative viability ([2]; first compound 2.53 µM): 0.928
- relative viability ([2]; first compound 8 µM): 0.788
- relative viability ([3]; first compound 0.08 µM): 0.963
- relative viability ([3]; first compound 0.253 µM): 0.883
- relative viability ([3]; first compound 0.8 µM): 0.937
- relative viability ([3]; first compound 2.53 µM): 0.823
- relative viability ([3]; first compound 8 µM): 0.708
- relative viability ([4]; first compound 0.08 µM): 0.44
- relative viability ([4]; first compound 0.253 µM): 0.432
- relative viability ([4]; first compound 0.8 µM): 0.401
- relative viability ([4]; first compound 2.53 µM): 0.44
- relative viability ([4]; first compound 8 µM): 0.345

Cell Line: NCI-H2023
- relative viability ([1]; first compound 0.08 µM): 0.542
- relative viability ([1]; first compound 0.253 µM): 0.457
- relative viability ([1]; first compound 0.8 µM): 0.501
- relative viability ([1]; first compound 2.53 µM): 0.447
- relative viability ([1]; first compound 8 µM): 0.264
- relative viability ([2]; first compound 0.08 µM): 0.932
- relative viability ([2]; first compound 0.253 µM): 0.991
- relative viability ([2]; first compound 0.8 µM): 0.732
- relative viability ([2]; first compound 2.53 µM): 0.406
- relative viability ([2]; first compound 8 µM): 0.451
- relative viability ([3]; first compound 0.08 µM): 0.517
- relative viability ([3]; first compound 0.253 µM): 0.472
- relative viability ([3]; first compound 0.8 µM): 0.449
- relative viability ([3]; first compound 2.53 µM): 0.536
- relative viability ([3]; first compound 8 µM): 0.366
- relative viability ([4]; first compound 0.08 µM): 0.41
- relative viability ([4]; first compound 0.253 µM): 0.417
- relative viability ([4]; first compound 0.8 µM): 0.411
- relative viability ([4]; first compound 2.53 µM): 0.468
- relative viability ([4]; first compound 8 µM): 0.312

Cell Line: NCI-H322M
- relative viability ([1]; first compound 0.08 µM): 0.536
- relative viability ([1]; first compound 0.253 µM): 0.487
- relative viability ([1]; first compound 0.8 µM): 0.495
- relative viability ([1]; first compound 2.53 µM): 0.473
- relative viability ([1]; first compound 8 µM): 0.399
- relative viability ([2]; first compound 0.08 µM): 0.67
- relative viability ([2]; first compound 0.253 µM): 0.641
- relative viability ([2]; first compound 0.8 µM): 0.509
- relative viability ([2]; first compound 2.53 µM): 0.443
- relative viability ([2]; first compound 8 µM): 0.457
- relative viability ([3]; first compound 0.08 µM): 0.722
- relative viability ([3]; first compound 0.253 µM): 0.969
- relative viability ([3]; first compound 0.8 µM): 0.561
- relative viability ([3]; first compound 2.53 µM): 0.758
- relative viability ([3]; first compound 8 µM): 0.749
- relative viability ([4]; first compound 0.08 µM): 0.861
- relative viability ([4]; first compound 0.253 µM): 0.967
- relative viability ([4]; first compound 0.8 µM): 0.693
- relative viability ([4]; first compound 2.53 µM): 0.673
- relative viability ([4]; first compound 8 µM): 0.536

Cell Line: NCI-H1666
- relative viability ([1]; first compound 0.08 µM): 0.829
- relative viability ([1]; first compound 0.253 µM): 0.761
- relative viability ([1]; first compound 0.8 µM): 0.792
- relative viability ([1]; first compound 2.53 µM): 0.849
- relative viability ([1]; first compound 8 µM): 0.75
- relative viability ([2]; first compound 0.08 µM): 0.722
- relative viability ([2]; first compound 0.253 µM): 0.8
- relative viability ([2]; first compound 0.8 µM): 0.48
- relative viability ([2]; first compound 2.53 µM): 0.474
- relative viability ([2]; first compound 8 µM): 0.476
- relative viability ([3]; first compound 0.08 µM): 0.737
- relative viability ([3]; first compound 0.253 µM): 0.82
- relative viability ([3]; first compound 0.8 µM): 0.725
- relative viability ([3]; first compound 2.53 µM): 0.752
- relative viability ([3]; first compound 8 µM): 0.604
- relative viability ([4]; first compound 0.08 µM): 0.59
- relative viability ([4]; first compound 0.253 µM): 0.589
- relative viability ([4]; first compound 0.8 µM): 0.556
- relative viability ([4]; first compound 2.53 µM): 0.549
- relative viability ([4]; first compound 8 µM): 0.516
